The record followed here is paper PMC7885310 (3 Biotech, 2021).

This test relates to Gram-positive and Gram-negative bacteria. As to the kind of experiment: In vitro antibacterial assay, pooled statement over all tested strains. The format is cell-based, S. aureus, B. subtilis, S. typhi, E. coli.

`O=c1c(O)c(-c2ccc(O)c(O)c2)oc2cc(O)cc(O)c12` [Compound 1, quercetin] returned an MIC of 0.0692 to 0.151 µM.

`O=c1c(O)c(-c2ccc(O)cc2)oc2cc(O)cc(O)c12` [Compound 3, kaempferol]: the MIC is greater than 100 µg/mL.

Broadly, the MIC is the smallest concentration in the dilution series that meets the test's criterion for growth inhibition. High values mean weaker potency, low ones greater potency.
